Data reported in patent publication US5753240A, “Fluorinated compounds and compositions comprising them” (L'Oreal, priority 1994, dated 1998).

Tests used:
Format in all cases: physicochemical
[1] = Thickening effect of Example 1 on various vehicles: Parleam oil; details: 0.2% in Parleam oil
Procedure: (§1) The thickening of the medium can be carried out by completely dissolving the fluorinated compound of formula I, at a temperature ranging from 20° C. to 80° C., and then by allowing the mixture to stand until it is completely thickened.
(§2) Thickening effect of Example 1 on various vehicles
(§3) As is evident, Sunflower refers to Sunflower oil and Parleam refers to Parleam oil. Eutanol G is a tradename for octyldodecanol and is manufactured by Henkel.
(§4) Gelled media were thus obtained.

[2] = Thickening effect of Example 1 on various vehicles: Sunflower oil; details: 0.2% in Sunflower oil
Procedure: as §1, §2, §3, §4

[3] = Thickening effect of Example 1 on various vehicles: Perhydrosqualene; details: 0.2% in Perhydrosqualene
Procedure: as §1, §2, §4

[4] = Thickening effect of Example 1 on various vehicles: Petroleum jelly; details: 0.2% in Petroleum jelly
Procedure: as §1, §2, §4

[5] = Thickening effect of Example 1 on various vehicles: Olive oil; details: 0.2% in Olive oil
Procedure: as §1, §2, §4

[6] = Stability of the thickened (gelled) media over time; details: over a period of over 6 months
Excerpt: as §4

## CCCCCCCCCCCCCCCCOC(=O)NCCCCCCCCCCC(=O)OCCC(F)(F)C(F)(F)C(F)(F)C(F)(F)C(F)(F)C(F)(F)C(F)(F)C(F)(F)F [Example 1, 2-(F-octyl)ethyl 11-(N-hexadecyloxycarbonyl)aminoundecanoate]
[1]
  Thickening effect: no effect
[2]
  Thickening effect: no effect
[3]
  Thickening effect: no effect
[4]
  Thickening effect: no effect
[5]
  Thickening effect: no effect
[6]
  Stability of thickened media: perfect stability
